Experimental data taken from patent US12077503B2, “Substituted cyclic amides and their use as herbicides” (FMC CORPORATION, priority 2015, dated 2024).

What was measured:
Type in all cases: in vivo
corn (Zea mays) [1] = assay: Test G Pre-Emergence Protocol; conditions: Zea mays, pre-emergence, 312 h, evaluated after 13 days; for plant injury at 15.625 g/ha: 15.625 g ai/ha; for plant injury at 15.625 g/ha / plant injury at 250 g/ha: read-out: Corn damage rating (100=total damage to plant; 0=no damage to plant); for plant injury at 62.5 g/ha: 62.5 g ai/ha, 100=total damage to plant, 0=no damage to plant, read-out: plant damage rating, Corn; for plant injury at 250 g/ha: 250 g ai/ha
Summary of the method: (§1)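 Spraying took place one day after sowing, at 15.625, 62.5 or 250 g/ha, using an acetone/water (50:50) spray solution containing 0.5% Tween 20. Plants were kept under glasshouse conditions (24/16 °C, 14 h light, 65% humidity, watered twice daily), and injury was rated 0–100 at day 13.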

[2] = system: barnyardgrass (Echinochloa crus-galli); assay: Test G Pre-Emergence Protocol; conditions: Echinochloa crus-galli, pre-emergence, 312 h, evaluated after 13 days; for pest or weed control at 15.625 g/ha: 15.625 g ai/ha, read-out: Barnyard grass damage rating (100=total damage to plant; 0=no damage to plant); for pest or weed control at 62.5 g/ha: 62.5 g ai/ha, 100=total damage to plant, 0=no damage to plant, read-out: plant damage rating, Barnyardgrass; for pest or weed control at 250 g/ha: 250 g ai/ha, read-out: Barnyardgrass damage rating (100=total damage to plant; 0=no damage to plant)
Summary of the method: as §1

[3] = system: ivy-leaved morning glory (Ipomoea hederacea); assay: Test G Pre-Emergence Protocol; conditions: Ipomoea, pre-emergence, 312 h, evaluated after 13 days; for pest or weed control at 15.625 g/ha: 15.625 g ai/ha, read-out: Morning-glory, Ivy-leaved damage rating (100=total damage to plant; 0=no damage to plant); for pest or weed control at 62.5 g/ha: 62.5 g ai/ha, 100=total damage to plant, 0=no damage to plant, read-out: plant damage rating, Morningglory, Ivy-leaved; for pest or weed control at 250 g/ha: 250 g ai/ha, read-out: Morningglory, Ivy-leaved damage rating (100=total damage to plant; 0=no damage to plant)
Summary of the method: as §1

[4] = system: redroot pigweed (Amaranthus retroflexus); assay: Test G Pre-Emergence Protocol; conditions: Amaranthus retroflexus, pre-emergence, 312 h, evaluated after 13 days; for pest or weed control at 15.625 g/ha: 15.625 g ai/ha; for pest or weed control at 15.625 g/ha / pest or weed control at 250 g/ha: read-out: Pigweed, Redroot damage rating (100=total damage to plant; 0=no damage to plant); for pest or weed control at 62.5 g/ha: 62.5 g ai/ha, 100=total damage to plant, 0=no damage to plant, read-out: plant damage rating, Pigweed, Redroot; for pest or weed control at 250 g/ha: 250 g ai/ha
Summary of the method: as §1

[5] = system: velvetleaf (Abutilon theophrasti); assay: Test G Pre-Emergence Protocol; conditions: Abutilon theophrasti, pre-emergence, 312 h, evaluated after 13 days; for pest or weed control at 15.625 g/ha: 15.625 g ai/ha; for pest or weed control at 15.625 g/ha / pest or weed control at 250 g/ha: read-out: Velvetleaf damage rating (100=total damage to plant; 0=no damage to plant); for pest or weed control at 62.5 g/ha: 62.5 g ai/ha, 100=total damage to plant, 0=no damage to plant, read-out: plant damage rating, Velvetleaf; for pest or weed control at 250 g/ha: 250 g ai/ha
Summary of the method: as §1

[6] = system: giant foxtail (Setaria faberi); assay: Test G Pre-Emergence Protocol; conditions: Setaria faberi, pre-emergence, 312 h, evaluated after 13 days; for pest or weed control at 15.625 g/ha: 15.625 g ai/ha; for pest or weed control at 15.625 g/ha / pest or weed control at 250 g/ha: read-out: Foxtail, Giant damage rating (100=total damage to plant; 0=no damage to plant); for pest or weed control at 62.5 g/ha: 62.5 g ai/ha, 100=total damage to plant, 0=no damage to plant, read-out: plant damage rating, Foxtail, Giant; for pest or weed control at 250 g/ha: 250 g ai/ha
Summary of the method: as §1

corn (Zea mays) [7] = assay: Test G Post-Emergence Protocol; conditions: Zea mays, post-emergence, 312 h; for plant injury at 15.625 g/ha: 15.625 g ai/ha, evaluated after 13 days (100=total damage to plant; 0=no damage to plant), read-out: Corn damage rating; for plant injury at 62.5 g/ha: 62.5 g ai/ha, read-out: Corn damage rating (100=total damage to plant; 0=no damage to plant); for plant injury at 62.5 g/ha / plant injury at 250 g/ha: evaluated after 13 days; for plant injury at 250 g/ha: 250 g ai/ha, read-out: damage to plant, Corn (100=total damage to plant; 0=no damage to plant)
Summary of the method: (§2)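 Sow in soil; grow 8 d (24/16 °C, 14 h light, 65% humidity); spray 15.625/62.5/250 g/ha in acetone:water 50:50 + 0.5% Tween 20; grow on, water twice daily; score damage 0–100 at 13 d.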

[8] = system: barnyardgrass (Echinochloa crus-galli); assay: Test G Post-Emergence Protocol; conditions: Echinochloa crus-galli, post-emergence, 312 h; for pest or weed control at 15.625 g/ha: 15.625 g ai/ha, evaluated after 13 days (100=total damage to plant; 0=no damage to plant), read-out: Barnyardgrass damage rating; for pest or weed control at 62.5 g/ha: 62.5 g ai/ha, read-out: Barnyardgrass damage rating (100=total damage to plant; 0=no damage to plant); for pest or weed control at 62.5 g/ha / pest or weed control at 250 g/ha: evaluated after 13 days; for pest or weed control at 250 g/ha: 250 g ai/ha, read-out: damage to plant, Barnyardgrass (100=total damage to plant; 0=no damage to plant)
Summary of the method: as §2

[9] = system: ivy-leaved morning glory (Ipomoea hederacea); assay: Test G Post-Emergence Protocol; conditions: Ipomoea, post-emergence, 312 h; for pest or weed control at 15.625 g/ha: 15.625 g ai/ha, evaluated after 13 days (100=total damage to plant; 0=no damage to plant), read-out: Morningglory, Ivy-leaved damage rating; for pest or weed control at 62.5 g/ha: 62.5 g ai/ha, read-out: Morningglory, Ivy-leaved damage rating (100=total damage to plant; 0=no damage to plant); for pest or weed control at 62.5 g/ha / pest or weed control at 250 g/ha: evaluated after 13 days; for pest or weed control at 250 g/ha: 250 g ai/ha, read-out: damage to plant, Morningglory, Ivy-leaved (100=total damage to plant; 0=no damage to plant)
Summary of the method: as §2

[10] = system: redroot pigweed (Amaranthus retroflexus); assay: Test G Post-Emergence Protocol; conditions: Amaranthus retroflexus, post-emergence, 312 h; for pest or weed control at 15.625 g/ha: 15.625 g ai/ha, evaluated after 13 days (100=total damage to plant; 0=no damage to plant), read-out: Pigweed, Redroot damage rating; for pest or weed control at 62.5 g/ha: 62.5 g ai/ha, read-out: Pigweed, Redroot damage rating (100=total damage to plant; 0=no damage to plant); for pest or weed control at 62.5 g/ha / pest or weed control at 250 g/ha: evaluated after 13 days; for pest or weed control at 250 g/ha: 250 g ai/ha, read-out: damage to plant, Pigweed, Redroot (100=total damage to plant; 0=no damage to plant)
Summary of the method: as §2

[11] = system: velvetleaf (Abutilon theophrasti); assay: Test G Post-Emergence Protocol; conditions: Abutilon theophrasti, post-emergence, 312 h; for pest or weed control at 15.625 g/ha: 15.625 g ai/ha, evaluated after 13 days (100=total damage to plant; 0=no damage to plant), read-out: Velvetleaf damage rating; for pest or weed control at 62.5 g/ha: 62.5 g ai/ha, read-out: Velvetleaf damage rating (100=total damage to plant; 0=no damage to plant); for pest or weed control at 62.5 g/ha / pest or weed control at 250 g/ha: evaluated after 13 days; for pest or weed control at 250 g/ha: 250 g ai/ha, read-out: damage to plant, Velvetleaf (100=total damage to plant; 0=no damage to plant)
Summary of the method: as §2

[12] = system: giant foxtail (Setaria faberi); assay: Test G Post-Emergence Protocol; conditions: Setaria faberi, post-emergence, 312 h; for pest or weed control at 15.625 g/ha: 15.625 g ai/ha, evaluated after 13 days (100=total damage to plant; 0=no damage to plant), read-out: Foxtail, Giant damage rating; for pest or weed control at 62.5 g/ha: 62.5 g ai/ha, read-out: Foxtail, Giant damage rating (100=total damage to plant; 0=no damage to plant); for pest or weed control at 62.5 g/ha / pest or weed control at 250 g/ha: evaluated after 13 days; for pest or weed control at 250 g/ha: 250 g ai/ha, read-out: damage to plant, Foxtail, Giant (100=total damage to plant; 0=no damage to plant)
Summary of the method: as §2

| SMILES | plant injury at 15.625 g/ha (corn (Zea mays) [1]) [%] | plant injury at 62.5 g/ha (corn (Zea mays) [1]) [%] | plant injury at 250 g/ha (corn (Zea mays) [1]) [%] | pest or weed control at 15.625 g/ha [2] [%] | pest or weed control at 62.5 g/ha [2] [%] | pest or weed control at 250 g/ha [2] [%] | pest or weed control at 15.625 g/ha [3] [%] | pest or weed control at 62.5 g/ha [3] [%] | pest or weed control at 250 g/ha [3] [%] | pest or weed control at 15.625 g/ha [4] [%] | pest or weed control at 62.5 g/ha [4] [%] | pest or weed control at 250 g/ha [4] [%] | pest or weed control at 15.625 g/ha [5] [%] | pest or weed control at 62.5 g/ha [5] [%] | pest or weed control at 250 g/ha [5] [%] | pest or weed control at 15.625 g/ha [6] [%] | pest or weed control at 62.5 g/ha [6] [%] | pest or weed control at 250 g/ha [6] [%] | plant injury at 15.625 g/ha (corn (Zea mays) [7]) [%] | plant injury at 62.5 g/ha (corn (Zea mays) [7]) [%] | also measured |
| --- | --- | --- | --- | --- | --- | --- | --- | --- | --- | --- | --- | --- | --- | --- | --- | --- | --- | --- | --- | --- | --- |
| CN1C[C@@H](c2ccc(C(F)(F)F)cc2)[C@H](C(=O)Nc2n[nH]c(C(F)(F)F)n2)C1=O (racemic) [Compound 1540] | 0 | 0 | 0 | 0 | 0 | 0 | 0 | 0 | 0 | 0 | 0 | 40 | 0 | 0 | 0 | 0 | 0 | 0 | 0 | 10 | plant injury at 250 g/ha (corn (Zea mays) [7]): 10%; pest or weed control at 15.625 g/ha [8]: 0%; pest or weed control at 62.5 g/ha [8]: 0%; pest or weed control at 250 g/ha [8]: 0%; pest or weed control at 15.625 g/ha [9]: 0%; pest or weed control at 62.5 g/ha [9]: 10%; pest or weed control at 250 g/ha [9]: 10%; pest or weed control at 15.625 g/ha [10]: 0%; pest or weed control at 62.5 g/ha [10]: 0%; pest or weed control at 250 g/ha [10]: 20%; pest or weed control at 15.625 g/ha [11]: 0%; pest or weed control at 62.5 g/ha [11]: 0%; pest or weed control at 250 g/ha [11]: 0%; pest or weed control at 15.625 g/ha [12]: 0%; pest or weed control at 62.5 g/ha [12]: 0%; pest or weed control at 250 g/ha [12]: 0% |
| CN1C[C@H](c2ccc3c(c2)CCCC3)[C@@H](C(=O)Nc2cccc(F)c2F)C1=O (racemic) [Compound 1496] | 0 | 0 | 20 | 0 | 40 | 80 | 0 | 0 | 0 | 0 | 0 | 0 | 0 | 0 | 0 | 0 | 50 | 80 | 10 | 20 | plant injury at 250 g/ha (corn (Zea mays) [7]): 50%; pest or weed control at 15.625 g/ha [8]: 20%; pest or weed control at 62.5 g/ha [8]: 50%; pest or weed control at 250 g/ha [8]: 60%; pest or weed control at 15.625 g/ha [9]: 0%; pest or weed control at 62.5 g/ha [9]: 0%; pest or weed control at 250 g/ha [9]: 0%; pest or weed control at 15.625 g/ha [10]: 0%; pest or weed control at 62.5 g/ha [10]: 0%; pest or weed control at 250 g/ha [10]: 0%; pest or weed control at 15.625 g/ha [11]: 0%; pest or weed control at 62.5 g/ha [11]: 0%; pest or weed control at 250 g/ha [11]: 20%; pest or weed control at 15.625 g/ha [12]: 20%; pest or weed control at 62.5 g/ha [12]: 60%; pest or weed control at 250 g/ha [12]: 60% |
